Assay results: the METLIN SMRT retention time set (Domingo-Almenara et al. 2019)

Assay: gradient 5% acetonitrile 3 min, to 50% in 2 min, to 85% in 15 min, held 3 min, 100 µL/min
Settings: column: Zorbax Extend-C18 2.1 x 50 mm; eluents: water / acetonitrile, 0.1% formic acid
In short: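 A Zorbax Extend-C18 column (2.1 × 50 mm, 1.8 μm) run at 100 μL/min with water and acetonitrile, both containing 0.1% formic acid, separated mixtures of ~100 pure standards. The HPLC was coupled to a quadrupole time-of-flight mass spectrometer operated in positive and negative ionization mode, with dead and dwell volumes of 40 μL and 900 μL. Each retention time was taken from a computationally picked adduct peak that was then manually inspected.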

SMILES | RP-LC retention time [s]
c1ccc(-c2nnc(CN3CCCCC3)o2)cc1 | 566
COc1ccc(N2C(=O)C3N=NN(Cc4nc(-c5ccc(Cl)cc5)no4)C3C2=O)cc1OC (centres undefined) | 963
Cc1noc(-c2nn(C)c3c2CN(C(=O)c2cc4c(s2)CCCC4)CC3)n1 | 882
CCOCCCNC(=O)N1c2ccccc2CC1c1nc(C(C)C)no1 (centres undefined) | 901
O=C(NCCCN1CCCCCC1)c1csc(-c2ccnc(N3CCOCC3)c2)n1 | 576
COc1ccc(OC)c(NC(=O)N2CCC(n3c(C(F)(F)F)nc4cccnc43)CC2)c1 | 895
Cc1ccc2cc(CCC(=O)NCCCN(C)C)c(=O)[nH]c2c1 | 577
O=C(NC(c1ccccc1)c1nnc(N2CCCC2)o1)c1ccccc1Cl (centres undefined) | 867
CC(C)n1cnc(S(=O)(=O)N2CCC(C(=O)Nc3ccc(F)c(Cl)c3)CC2)c1 | 834
Cc1ncc2n1CCN(S(=O)(=O)c1ccccc1)C2 | 584
CCC(C)NC(=O)Cn1ccn2nc(-c3ccc(F)cc3)c(CO)c2c1=O (centres undefined) | 725
CCC(C)C(=O)NC1CCN(C2=NS(=O)(=O)C(c3ccc(F)cc3)=C2C)CC1 (centres undefined) | 785
Cc1ccc(C(=O)Nc2nccnc2C(=O)N2CCC3(CC2)OCCO3)cc1 | 724
Cc1oc(C2CCN(S(=O)(=O)c3ccccc3F)CC2)nc1C(=O)N1CCOCC1 | 776
CN(C)CC1CN(C(=O)c2c[nH]c3ccccc23)CC12CCOCC2 (centres undefined) | 725
O=C(Nc1ccc2c(c1)OCCO2)N1CCC(OCCOCc2ccccc2)CC1 | 853
CCOC(=O)C1CCN(Cc2nc3nc(C)cc(N4CCC(C)CC4)n3n2)CC1 | 642
Cc1ccc2c(C)nc(Nc3ncc4c(n3)CCCC4=O)nc2c1 | 598
Clc1ccccc1N1CCN(c2ncnc3[nH]ncc23)CC1 | 660
Cc1ccc(C)c(Cn2nnc(C(=O)O)c2-c2ccncc2)c1 | 650
Cc1noc(C)c1S(=O)(=O)N1CCc2c(c(-c3nnc(-c4ccccc4)o3)nn2C)C1 | 880
O=C(c1cnccn1)N1CCC(c2nc(-c3ccccc3)no2)C1 (centres undefined) | 758
CC(=O)Nc1cccc(C2OC(c3c(OC(C)=O)ccc4ccccc34)=NN2C(C)=O)c1 (centres undefined) | 838

SMILES | RP-LC retention time [s]
CC1=NS(=O)(=O)N(C)C=C1C(=O)OCc1nc(-c2ccc(C)cc2)no1 | 977
CCOc1cccc(-c2noc(-c3nnn4c3COC(c3ccc(OC)cc3)C4)n2)c1 (centres undefined) | 1210
COCC(=O)N(CC(=O)N1CCc2sccc2C1COc1ccc(Cl)cc1)C(C)(C)C (centres undefined) | 991
O=C(c1n[nH]c(=O)c2ccccc12)N1C[C@H]2C[C@H](C1)[C@H]1CCCC(=O)N1C2 | 598
CC(C)CN1C(=O)c2cccn2CC1CNC(=O)CC1CCCC1 (centres undefined) | 784
CC(C)n1cnnc1CC1CCN(S(=O)(=O)Cc2ccccc2)C1 (centres undefined) | 659
O=C(CN1C(=O)C2CCCCN2c2ccc(S(=O)(=O)N3CCCC3)cc21)N1CCCCC1 (centres undefined) | 872
COc1ccccc1N1CCN(c2ncc(C(=O)O)c(C)n2)CC1 | 750
O=C(NC1(c2nc(-c3cnccn3)no2)CCCCC1)c1ccco1 | 712
O=C(c1cccs1)N1CCCC(OCc2nc(C3CC3)no2)C1 (centres undefined) | 786
CCN1C(=O)c2cccnc2Sc2cc(NC(=O)Cc3c(F)cccc3Cl)ccc21 | 870
COc1ccc2c(c1)C1(CCN(C(=O)CC(C)(C)C)C1)C(=O)N2 (centres undefined) | 725
O=C(Cn1c(=O)c2cccn2c2ccccc21)NCc1cccs1 | 763
CCc1noc(-c2ccc(-n3cnc(C(=O)NC4CCCCC4)c3)nc2)n1 | 1110
Cc1ccc(NC(=O)CN2CCc3[nH]c4c(C)c(C)ccc4c(=O)c3C2)cc1 | 626
CCc1nnc(-c2cc(S(=O)(=O)NCCCc3ccccc3)cn2C)o1 | 864
O=C(c1cc(S(=O)(=O)N2CCCCCC2)ccc1Cl)N1CCN(c2ncccn2)CC1 | 926
COc1ccc(OCc2noc(CNS(=O)(=O)c3ccc4c(c3)CCCC4)n2)cc1 | 968
O=C(c1ccc(-c2ccc3c(c2)CCN3S(=O)(=O)c2ccccc2F)cc1)N1CCOCC1 | 899
CCc1ccc(NC(=O)Cn2c(=O)n(-c3cccc(C)c3)c(=O)c3c2cc(C)n3C)cc1 | 645
Cc1ccc(S(=O)(=O)Nc2cc(C(=O)O)ccc2N2CCN(c3ccccn3)CC2)cc1 | 673
CCN1c2ccc(C)cc2C(=O)NC12CCN(C(=O)c1ccc(OC)cc1)CC2 | 810
Cc1nc2c(n1C)CN(C(=O)Cc1ccc(F)cc1)CC2 | 582

SMILES | RP-LC retention time [s]
Cn1ncc2c3ccccc3n(CCCC(=O)NC3CCN(Cc4ccccc4)CC3)c2c1=O | 655
COc1ccc(-c2cn3c(CC(=O)Nc4ccc(S(N)(=O)=O)cc4)csc3n2)cc1OC | 630
COC(=O)C(C)NC(=O)N1CCN(c2nc3ccccc3n2Cc2ccccc2)CC1 (centres undefined) | 659
CNC(=O)c1cccc2c1CCN2C(=O)Nc1ccc(C)cc1 | 747
CNC(=O)Cc1ccc(NC(=O)NC2CCCCC2)cc1 | 642
O=C(Nc1ccc(Cl)cc1)C1CCCN(c2nc3ccsc3c(=O)n2Cc2ccc(F)cc2)C1 (centres undefined) | 1110
Cc1ccc(Oc2cccc(C(=O)NCCNc3cc(N4CCCC4)nc(C)n3)c2)nn1 | 562
CSc1ccccc1CN1CCC(CNS(=O)(=O)/C=C/c2ccccc2)CC1 | 607
Fc1ccc(Cc2nc3nccc(-c4ccccc4)n3n2)cc1 | 890
CC1CCC(C(C)C)C(NC(=O)c2ccncc2)C1 (centres undefined) | 894
CCC(=O)Nc1ccc(CCc2nc3ccc(C(=O)NCC4CCCO4)cc3[nH]2)cc1 (centres undefined) | 592
CCN1CCC(O)(/C=C/c2ccc(C)cc2)C(C(=O)/C=C/c2ccc(C)cc2)C1 (centres undefined) | 767
O=C(c1cccs1)N1CCc2ccc([N+](=O)[O-])cc2C1 | 792
CN(C)CCCNC(=O)C1CCN(c2nc3ccc(-c4ccccc4F)nc3s2)CC1 | 649
CCC(NC(=O)c1cn(C)c2ncccc12)c1cccs1 (centres undefined) | 800
Cc1ccc(F)cc1S(=O)(=O)N1CCC2(CCN(c3cccnc3)C2)C1 (centres undefined) | 685
CCN1CCN(c2ccc(NC(C)=O)cn2)C1=O | 567
Cc1oc(C2CCN(C(=O)Nc3cccc(Cl)c3C)CC2)nc1C(=O)N(C)C | 728
Cc1nn(C)c(C)c1CNC(=O)C1CC(=O)N(c2n[nH]c3cccc(F)c23)C1 (centres undefined) | 594
Cc1nn(C)c2nc(OC(C)C(=O)NCc3ccc(F)cc3)cc(C(F)(F)F)c12 (centres undefined) | 960
CN1C(=O)C2CCCCN2c2ccc(C(=O)NCCCN3CCN(C4CCCCC4)CC3)cc21 (centres undefined) | 594
CCc1nc(N2CCCC2=O)sc1C(=O)Nc1ccc(OC)c(Cl)c1 | 905
Cc1ccc(C)c(N2CCN(c3ccnc(SCC(=O)Nc4cc(F)ccc4C)n3)CC2)c1 | 1040

SMILES | RP-LC retention time [s]
CC(C)c1ccc(CNC(=O)Cc2nnc(-c3ccccn3)o2)cc1 | 578
Cc1ccc(CS(=O)(=O)N2CCC(C3CCNC3)CC2)cc1 (centres undefined) | 588
CN1CCc2ccccc2C1Cc1ccccc1NC(=O)c1sc2ccccc2c1Cl (centres undefined) | 852
CCOc1ccc(NC2=NS(=O)(=O)C(c3ccc(OC)cc3)=C2C)cc1 | 940
CC1CCN(C(=O)CSc2nnc(-c3ccccc3F)o2)CC1 | 901
C=C(C)Cn1c(C(C)(C)C)cn2c3c(=O)n(C)c(=O)n(C)c3nc12 | 739
CCOC(=O)Cc1ccc(NC(=O)N2CCc3cn(CC)c4cccc(c34)C2)cc1 | 1020
O=C(C1=CN(c2ccc(F)c(Cl)c2)c2ccccc2S1(=O)=O)N1CCOCC1 | 786
CCc1ccc(NS(=O)(=O)c2cc(-c3c(CC)noc3NC(C)=O)ccc2OC)cc1 | 802
Cn1c(N2CCCC(C(=O)N3CCN(c4cccc(C(F)(F)F)c4)CC3)C2)cc(=O)n(C)c1=O (centres undefined) | 831
Cc1ccc(C)c(-c2csc(Nc3ccc(F)cn3)n2)c1 | 1150
CCCS(=O)(=O)NCc1ccc2c(c1)CCN2C(=O)c1ccccc1 | 810
COc1ccc(-c2cc(N3CCN(C(=O)Nc4cc(OC)ccc4OC)CC3)ncn2)cc1 | 685
CC(=O)Nc1nsc(N2CCC(C(=O)N3CCN(c4cccc(Cl)c4)CC3)CC2)n1 | 731
CCOC(=O)COC(=O)c1cn(-c2cccc(C)c2)c(=O)c2ccccc12 | 718
COc1cc(NC(=O)N2c3ccccc3CC2c2nc(C3CC3)no2)cc(OC)c1 (centres undefined) | 1030
CCc1cc(C(=O)NCc2ccc(F)cc2)nc2ccnn12 | 909
Cc1ccc(CNC(=O)c2[nH]c3cc(C)sc3c2CN2CCOCC2)cc1 | 735
Cc1noc(C)c1CCC(=O)N1CCCn2ccnc2C1C(C)C (centres undefined) | 590
COC(=O)c1c(C)[nH]c(C(=O)N2CCC(CC(=O)NCc3ccc(C)o3)CC2)c1C | 702
